Source: patent publication US20250312440A1, “CHEMICAL SCREEN OF MODULATORS FOR VACCINE ADJUVANTS” (THE UNIVERSITY OF CHICAGO, priority 2022, published 2025)

How the values were obtained:
TNF-α = experiment: Plasma cytokine analysis 1 hr after OVA vaccination with agonist + modulator; type: in vivo, mice; settings: 1 hr after vaccination, CpG 50 μg + modulator 1.5 μmol
Description: All animal procedures were performed under a protocol approved by the University of Chicago Institutional Animal Care and Use Committee (IACUC). 6-to-8-week-old C57/B6 female mice were purchased from the Jackson laboratory. All vaccinations were administered intramuscularly in the hind leg. Blood was collected from the submandibular vein at time points indicated.
Mice were lightly anesthetized with isoflurane and injected intramuscularly in the hind leg with an injection volume of 50 μL containing antigen, adjuvant, and a DMSO/AddaVax combination. Antigen dose was as follows: OVA (100 μg)). Agonists doses were as follows: Flagellin, 10 μg; R848, 50 μg; CpG, 50 μg. Modulators were added at 1.5 μmol.
Blood was collected from mice at specified time points in 0.2 mL of heparin-coated collection tubes (VWR Scientific). […] Plasma was analyzed using Bio-Legend's LegendPlex™ Mouse Inflammation Cytokine Panel (13-Plex) according to the manufacturer's protocol. Samples were analyzed using an ACEA NovoCyte Flow Cytometer. Data were analyzed using LEGENDplex™ Data Analysis Software Suite and GraphPad Prism.
The inventors used the vaccine score to select modulators to test in a murine in vivo model. […] The inventors monitored inflammatory cytokine levels one hour following initial injections and monitored antigen specific antibody levels at the indicated timepoints post-boost (FIG. 6A). […]

human THP-1 monocytes = experiment: Cytokine level screening in THP-1 cells (AlphaLISA/AlphaPlex, modulator + agonist); type: cell-based
Description: THP-1 cells were seeded at 50,000 cells per well in 45 μL of biotin-free RPMI+5% HI-FBS in clear 384 well plates. Following 24h incubation, 50 nL of 10 mM modulator libraries were added by Janus G3 via pintool to experimental wells (cols 3-22) for a final concentration of 10 μM. After 1 hour, 5 μL of agonist was added via a MultiDrop Combi liquid handler (col 3-23). The following day, 5 μL of supernatant was transferred to white low volume ProxiPlates. 10 μL of a prepared acceptor bead (10 μg/mL final conc), biotinylated antibody (1 nM final conc) mixture was added via liquid handler to the cell supernatant. After 1 hr incubation at RT, 5 μL of donor beads (40 μg/mL final conc) were added in the dark. After an additional 1 hr incubation, plates were read on a plate reader with AlphaPlex filters for europium (615 nm) and terbium (545 nm) emission. A separate plate was run each day containing a standard curve of known analyte for interpolation purposes.
Cytokines and chemokines are a broad category of secreted proteins important for adjuvants in regulating adaptive immunity (23). However, excessive production of cytokines by adjuvants can result in direct tissue damage and are correlated with vaccine tolerability (24, 25). To validate the findings of the primary screening results and to explore the impact on downstream immune outcomes, the inventors measured levels of six cytokines and chemokines involved in inflammation and adaptive responses (IL-12p40, IP-10, IL-1b, CCL4, TNF-α, and IFN-b, Table 4). The inventors measured cytokine expression through AlphaLISA, an assay well-suited to high throughput due to its large dynamic range, in situ measurement, and broad range of cytokines. It has been previously used to investigate small molecule biological inhibitors (26-28).
Cell supernatants were collected and cytokines were measured in three duplex measurements (FIG. 11A). Similarly, the inventors optimized standard curve ranges, crosstalk correction factors, incubation times and other factors of the secondary screen (FIGS. 11B-11D). As in the inventors' primary screen, modulators enhance or inhibit cytokine production among all six cytokines and for each agonist independently (FIGS. 4A-4G, FIG. 11E). The distributions within cytokines vary based on the dynamic range and Z-factor obtained for each cytokine and agonist studied (Table 5). High throughput screening utilizes Z-factors as a proxy for statistical reliability of an assay, due to the dynamic range of the positive controls and the inherent cytokines secreted for each agonist, a Z-factor score greater than zero was not obtained for certain agonists/[…] combinations. Since each agonist produced differing levels of cytokine that were sometimes at the limits of standard curve, amending this assay to a high throughout nature was challenging. […] Since the inventors measured fold-change and reduce dimensionality further in analysis, this approach was adequate to compare compounds within the inventors' dataset for down-selection.
After considering categorical and ranked scoring systems, the inventors decided the best representation of modulator performance would need to preserve cytokine changes but do so by normalizing for each cytokine's and agonist's dynamic range (37). Because of the differences in dynamic range of all the inventors' six cytokines, the inventors sought to normalize the data to ensure no distribution would bias the inventors' results. Thus, the inventors transformed each cytokine's distributions to a range from −1 to 1 (FIG. 5A). Unlike the previous screen, the inventors considered increases and decreases in cytokine responses separately when selecting molecules for vaccination studies. In the vaccine score, a promising candidate would need to produce minimal pro-inflammatory cytokines while increasing IFN-b and chemokine production (24, 25). Additionally, the inventors might prioritize the importance of one cytokine's modulation over another. […]

IL-6 and TNF-α = settings: with CPG adjuvant; cited from earlier work
[1] = THP-1, 10 μM modulator, across agonists
[2] = THP-1, 10 μM modulator, across receptors studied

In the case of `O=c1cc(-c2cccc3c2Sc2ccccc2S3)oc(N2CCOCC2)c1` [compound 3], the “systemic TNF-α for CpG” value (TNF-α) is reported as about 0.
With `Cc1ccc(NC(=O)c2ccc(CN3CC[C@H](N(C)C)C3)c(C(F)(F)F)c2)cc1Nc1nccc(-c2cncnc2)n1` [Bafetinib] the “difference in enhancement of IP-10 and IFN-b between agonists” value (human THP-1 monocytes; Pam3, Pam2 vs cGAMP) was ~2 orders of magnitude.
For `CN1CCN(C2CCN(C(=O)Nc3cc(Oc4ccc(NC(=O)C5(C(=O)Nc6ccc(F)cc6)CC5)c(F)c4)ccn3)CC2)CC1` [compound 2, Golvatinib], the “systemic TNF-α for CpG” value (TNF-α) was about 0.
For `CN(C)c1ccc2c(c1)Sc1cc(N(C)C)ccc1N2.CS(=O)(=O)O.CS(=O)(=O)O` [TRx0237(LMTX) mesylate], the “IFN-b production, modulator+agonist vs agonist alone” value (human THP-1 monocytes; [1]) was “enhance IFN-b secretion across all agonists studied” and the “TNF-α enhancement using cGAMP” value (human THP-1 monocytes; THP-1, 10 μM modulator, cGAMP) was “up to 36 fold”.
In the case of `COc1cc(CNC(=O)CCCC/C=C/C(C)C)ccc1O` [capsaicin], the “pro-inflammatory systemic IL-6 and TNF-α levels” value (IL-6 and TNF-α) is listed as “reduce”.
In the case of `CS[C@@]1(C(=O)Nc2ccc3[nH]nc(-c4ccc(OC(C)C)nc4)c3c2)CCN(CC(=O)N2CC=C(c3ccc(-c4ncn(C)n4)cc3)CC2)C1` [MK-8353], the “IFN-b production, modulator+agonist vs agonist alone” value (human THP-1 monocytes; [1]) is reported as “ablates”, the “IL-12 production, modulator+agonist vs agonist alone” value (human THP-1 monocytes; [1]) is reported as “ablates” and the “IP-10 production, modulator+agonist vs agonist alone” value (human THP-1 monocytes; [1]) is reported as “ablates”. The IL-1b enhancement (human THP-1 monocytes; [2]) was “up to 100 fold” and the TNF-α enhancement (human THP-1 monocytes; [2]) was “up to 100 fold”.
In the case of `C=CCc1ccc(O)c(-c2ccc(O)c(CC=C)c2)c1` [honokiol], the “pro-inflammatory systemic IL-6 and TNF-α levels” value (IL-6 and TNF-α) is given as “reduce”.
